Experimental data: PMC7532004, “Site-specific effects of neurosteroids on GABAA receptor activation and desensitization” (eLife, 2020)
Like-named read-outs stand apart in the source and are kept apart here.

Target: T1, α1β3 GABAAR WT (Homo sapiens, UniProt P14867+P28472)
T1 construct: inserted between the fourth and fifth residues of the mature peptide; photolabeling full-length heteropentameric GABAARs in native membranes; expressed in transfected cells
T1 sequence (P14867 28-456): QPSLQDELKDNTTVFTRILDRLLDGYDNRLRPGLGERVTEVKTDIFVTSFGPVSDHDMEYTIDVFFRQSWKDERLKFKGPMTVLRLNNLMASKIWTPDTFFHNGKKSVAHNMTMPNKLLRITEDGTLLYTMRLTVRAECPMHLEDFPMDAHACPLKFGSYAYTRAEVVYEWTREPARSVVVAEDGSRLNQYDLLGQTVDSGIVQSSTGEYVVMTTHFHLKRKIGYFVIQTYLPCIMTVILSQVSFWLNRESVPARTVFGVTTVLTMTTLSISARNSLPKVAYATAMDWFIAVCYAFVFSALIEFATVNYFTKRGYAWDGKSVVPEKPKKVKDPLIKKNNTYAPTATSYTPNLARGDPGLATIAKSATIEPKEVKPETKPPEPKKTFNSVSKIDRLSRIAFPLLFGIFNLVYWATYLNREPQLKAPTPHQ
T1 sequence (P28472 26-473): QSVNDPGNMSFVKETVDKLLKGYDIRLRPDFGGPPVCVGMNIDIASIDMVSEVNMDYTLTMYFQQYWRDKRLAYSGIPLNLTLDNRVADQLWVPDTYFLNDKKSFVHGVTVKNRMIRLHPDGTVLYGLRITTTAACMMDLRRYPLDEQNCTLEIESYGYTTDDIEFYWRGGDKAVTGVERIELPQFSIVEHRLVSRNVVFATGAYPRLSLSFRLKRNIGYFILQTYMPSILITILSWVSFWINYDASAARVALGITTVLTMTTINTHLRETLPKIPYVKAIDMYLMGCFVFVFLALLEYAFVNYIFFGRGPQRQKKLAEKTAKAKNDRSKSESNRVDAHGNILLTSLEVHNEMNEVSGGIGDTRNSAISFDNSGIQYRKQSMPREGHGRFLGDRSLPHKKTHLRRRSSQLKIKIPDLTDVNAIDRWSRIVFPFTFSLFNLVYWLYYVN
Experiment: [3H]muscimol binding to HEK cell membranes (neurosteroid modulation and isotherms), WT receptor
Details: for Emax (% of control) of [3H]muscimol binding: 100% means no effect; for Bmax of [3H]muscimol binding isotherm in the presence of the modulator: etomidate 100 μM, 3α5αP 30 μM, KK148 30 μM, control 9.8 ± 0.8
Experimental: Stably transfected cells were plated into dishes. After reaching 50% confluence, GABAA receptors were expressed by inducing cells with 1 μg/ml of doxycycline with the addition of 5 mM sodium butyrate. Cells were harvested 48 to 72 hr after induction. HEK cells, after induction, were grown to 100% confluence, harvested and washed with 10 mM potassium phosphate, 100 mM potassium chloride (pH 7.5) plus protease inhibitors (Sigma-Aldrich, St. Louis, MO) two times. The cells were collected by centrifugation at 1,000 g at 4°C for 5 min. The cells were homogenized with a glass mortar and a Teflon pestle for ten strokes on ice. The pellet containing the membrane proteins was collected after centrifugation at 20,000 g at 4°C for 45 min and resuspended in a buffer containing 10 mM potassium phosphate, 100 mM potassium chloride (pH 7.5). The protein concentration was determined with micro-BCA protein assay and membranes were stored at −80°C.
[^3H]muscimol-binding assays were performed using a previously described method ([Chen et al., 2019]). […] Assay tubes were incubated for 1 hr on ice in the dark. […] Membranes were collected on Whatman/GF-C glass filter papers using a Brandel cell harvester (Gaithersburg, MD). To perform [^3H]muscimol binding isotherms, 100 μg/ml aliquots of membrane protein were incubated with 0.3 nM–1 μM [^3H]muscimol for 1 hr on ice in the dark. The specific activity for [^3H]muscimol concentrations from 30 nM to 1 μM was reduced to 2 Ci/mmol by dilution with nonradioactive muscimol. The membranes were collected on Whatman/GF-B glass filter papers using a vacuum manifold. […] For [^3H]muscimol-binding experiments examining competitive interactions between neurosteroids, the combined neurosteroids (0.3 μM 3α5αP or 3 μM KK148 ±30 μM KK150) or the same volume of dimethyl sulfoxide (DMSO) were added to the membranes which were then incubated with 3 nM [^3H]muscimol on ice for 1 hr. Time courses of neurosteroid [^3H]muscimol binding enhancement were examined by adding 10 µM of neurosteroids (3α5αP, 3β5αP) to membranes that had been fully equilibrated with 3 nM [^3H]muscimol for 1 hr on ice; binding was then measured as a function of time at 1, 3, 10, 30, 60 min. The membranes were collected on Whatman/GF-B glass filter papers using a vacuum manifold. Radioactivity bound to the filters was measured by liquid scintillation spectrometry using Bio-Safe II (Research Products International, Mount Prospect, IL).

[1] = WT α1β3, 3 nM [3H]muscimol, 1 hr on ice, read-out: EC50 for modulation of [3H]muscimol binding

| SMILES | EC50 [nM] | Hill slope for modulation of [3H]muscimol binding (WT α1β3, 3 nM [3H]muscimol) | Emax (% of control) of [3H]muscimol binding (WT α1β3, 3 nM [3H]muscimol) | Bmax of [3H]muscimol binding isotherm in the presence of the modulator (WT α1β3) [pmol/mg] | Time constant (τ) of enhancement of [3H]muscimol binding (10 µM neurosteroid added to membranes equilibrated with 3 nM [3H]muscimol, 4°C) [min] | EC50 [1] [nM] | Effect on enhancement of [3H]muscimol binding by 3α5αP and KK148 (30 μM KK150 with 0.3 μM 3α5αP or 3 μM KK148, 3 nM [3H]muscimol) | Bmax of [3H]muscimol binding isotherm (WT α1β3) [pmol/mg] | Kd (WT α1β3, 0.3 nM–1 μM [3H]muscimol, read-out: Kd of [3H]muscimol binding isotherm) [nM] |
| --- | --- | --- | --- | --- | --- | --- | --- | --- | --- |
| CC(=O)[C@H]1CC[C@H]2[C@@H]3CC[C@H]4C[C@H](O)CC[C@]4(C)[C@H]3CC[C@]12C [3α5αP, allopregnanolone] | 240 ± 40 | 1.10 ± 0.14 | 374.1 ± 11.1 % of control | 10.3 ± 0.7 | – | – | – | – | – |
| CC(=O)[C@H]1CC[C@H]2[C@@H]3CC[C@H]4C[C@@H](O)CC[C@]4(C)[C@H]3CC[C@]12C [3β5αP, epi-allopregnanolone] | 260 ± 70 | 0.89 ± 0.26 | 195.6 ± 5.7 % of control | – | 3.97 ± 0.15 | – | – | – | – |
| C#CCCO[C@H]1CC[C@H]2[C@@H]3CC[C@H]4CC5(CC[C@]4(C)[C@H]3CC[C@]12C)N=N5 [KK148] | – | 1.36 ± 0.16 | 431.0 ± 19.5 % of control | 10.8 ± 0.9 | – | 2400 ± 360 | – | – | – |
| C#CCCO[C@@H]1CC[C@H]2[C@@H]3CC[C@H]4CC5(CC[C@]4(C)[C@H]3CC[C@]12C)N=N5 [KK150] | – | 1.12 ± 0.42 | 142.5 ± 3.9 % of control | – | – | 2760 ± 2320 | inhibited | – | – |
| NCc1cc(=O)[nH]o1 [muscimol] | – | – | – | – | – | – | – | 12.1 ± 1.4 | 48.1 ± 4 |
